Where a SMILES comes first, the peptide text is derived from it. [ ]: non-standard residue; d: D form. dPhe(F5) = N[C@H](Cc1c(F)c(F)c(F)c(F)c1F)C(=O)O
Experiments:
sperm [1] = assay: acrosome reaction, analogs alone or in the presence of GRP (sperm species not stated); type: cell-based; settings: for % Acrosome Reacted, Analog + GRP: analog 50 nM + GRP 2 nM; for % Acrosome Reacted, Analog: analog alone, final concentration 50 nM, blank control 6.000 ± .707
Experimental: (§1) The acrosome reaction, which is necessary for sperm to fertilize the egg, was induced by the following methods.
(§2) For monkeys, sperm was collected, washed twice in balanced salts, resuspended in lactate/bicarbonate and dibutyryl cAMP, and then incubated for 60 minutes. […] See Wolf, D. P. et al. Mol. Reprod. Dev. 27:261-280 (1990); Lanzendorf, S. E. et al. Mol. Reprod. Dev. 25:61-66 (1990); and Wolf D. P. et al. Biol. Reprod. 41:335-346 (1989). All of these three publications are hereby incorporated by reference.
(§3) To measure the effects of bombesin on the acrosome reaction, capacitation was conducted in the presence or absence of bombesin. After incubation, samples of sperm were removed to determine the percentage of sperm which had undergone the acrosome reaction as measured with an acrosome specific monoclonal antibody and FITC fluorescence [see Wolf, D. P. Am. J. Reprod. Immunol. 20:106-113 (1989), which is hereby incorporated by reference].
[…] bombesin analogs, BIM 26136, BIM 26187, BIM 26189, BIM 26224, BIM 26226, BIM 26244, and BIM 26028, were used to test their effect on the acrosome reaction, either alone or in the presence GRP, in a manner described above.

monkey sperm = assay: acrosome reaction in monkey sperm (acrosome specific monoclonal antibody, FITC fluorescence); type: cell-based, monkeys (rhesus); settings: for stimulation of the spontaneous acrosome reaction: monkeys (rhesus)
Experimental: as §1, §2, §3

human sperm = assay: acrosome reaction in human sperm; type: cell-based; settings: for stimulation of the spontaneous acrosome reaction: humans
Experimental: as §1, §3

new GRP receptor = assay: response of new GRP receptor in transfected cells and Xenopus oocytes; type: cell-based, rat
Text: A new GRP receptor, which is expressed in very high levels in rat sperm, has recently been cloned. cDNA encoding this receptor was used to determine if this new GRP receptor is expressed in primate sperm.

sperm [2] = settings: high doses, 1 μg/ml; cited from earlier work

For CC(C)C[C@H](NC(=O)[C@H](CC(C)C)NC(=O)[C@H](Cc1c[nH]cn1)NC(=O)CNC(=O)[C@@H](NC(=O)[C@H](C)NC(=O)[C@H](Cc1c[nH]c2ccccc12)NC(=O)[C@H](CCC(N)=O)NC(=O)[C@H](N)Cc1ccccc1)C(C)C)C(N)=O [BIM 26137, H-D-Phe-Gln-Trp-Ala-Val-Gly-His-Leu-Leu-NH2], the “% Acrosome Reacted, Analog + GRP” value (sperm [1]) was 7.000 ± .707% and the “% Acrosome Reacted, Analog” value (sperm [1]) was 7.000 ± .707%.

In the case of “H-Ala-Pro-Val-Ser-Val-Gly-Gly-Gly-Thr-Val-Leu-Ala-Lys-Met-Tyr-Pro-Arg-Gly-Asn-His-Trp-Ala-Val-Gly-His-Leu-Met-NH2 (H-APVSVGGGTVLAKMYPRGNHWAVGHLM-NH2) [GRP]”, the “stimulation of the spontaneous acrosome reaction” value (“stimulation” below) (monkey sperm) is reported as “stimulate”, the “stimulation” value (human sperm) is reported as “stimulate” and the “concentration at which active in stimulating the acrosome reaction” value (sperm [1]) is reported as 1 nM. The “% Acrosome Reacted, GRP without analog (blank control line, GRP column)” value (sperm [1]; GRP final concentration 2 nM, no analog) was 18.000 ± 3.629% and the “reaction of the new receptor to the peptide” value (new GRP receptor) was “reacted only weakly”.

In the case of Neuromedin B, the “reaction of the new receptor to the peptide” value (new GRP receptor) is reported as “reacted only weakly”.

With “H-D-Phe-Gln-Trp-Ala-Val-Gly-His-Leu-Cpa-NH2 [BIM 26169]” the “% Acrosome Reacted, Analog + GRP” value (sperm [1]) was 6.000 ± .408% and the “% Acrosome Reacted, Analog” value (sperm [1]) was 10.000 ± .913%.

In the case of CC(=O)[C@H]1CC[C@H]2[C@@H]3CCC4=CC(=O)CC[C@]4(C)[C@H]3CC[C@]12C [progesterone], the “induction of the acrosome reaction” value (sperm [2]) is listed as “induce the acrosome reaction”.

With CSCC[C@H](NC(=O)[C@H](CC(C)C)NC(=O)[C@H](Cc1cnc[nH]1)NC(=O)CNC(=O)[C@@H](NC(=O)[C@H](C)NC(=O)[C@H](Cc1c[nH]c2ccccc12)NC(=O)[C@H](CCC(N)=O)NC(=O)[C@H](CC(N)=O)NC(=O)CNC(=O)[C@H](CC(C)C)NC(=O)[C@H](CCCN=C(N)N)NC(=O)[C@H](CCC(N)=O)NC(=O)[C@@H]1CCC(=O)N1)C(C)C)C(N)=O [bombesin, H-pGlu-Gln-Arg-Leu-Gly-Asn-Gln-Trp-Ala-Val-Gly-His-Leu-Met-NH2] the “increase in the acrosome reaction” value (monkey sperm; monkey sperm, concentrations as low as 5 nM bombesin, FIG. 2) was 2 fold, the “stimulation” value (monkey sperm) was “stimulate” and the “increase in the acrosome reaction” value (human sperm; human sperm, concentrations as low as 5 nM bombesin, FIG. 2) was 2 fold. The “stimulation” value (human sperm) was “stimulate”.

In the case of COC(=O)[C@H](CC(C)C)NC(=O)[C@H](Cc1c[nH]cn1)NC(=O)[C@@H](C)NC(=O)[C@@H](NC(=O)[C@H](C)NC(=O)[C@H](Cc1c[nH]c2ccccc12)NC(=O)[C@H](CCC(N)=O)NC(=O)[C@H](N)Cc1c(F)c(F)c(F)c(F)c1F)C(C)C [BIM 26226, H-D-F5 -Phe-Gln-Trp-Ala-Val-D-Ala-His-Leu-OCH3] (H-[dPhe(F5)]QWAV[dA]HL-OMe), the “% Acrosome Reacted, Analog + GRP” value (sperm [1]) is reported as 12.000 ± .707% and the “% Acrosome Reacted, Analog” value (sperm [1]) is reported as 9.000 ± 1.780%.

In the case of CCCC[C@H](NC(=O)[C@H](Cc1ccccc1)NC(=O)[C@H](Cc1c[nH]cn1)NC(=O)CNC(=O)[C@@H](NC(=O)[C@H](C)NC(=O)[C@H](Cc1c[nH]c2ccccc12)NC(=O)[C@H](CCC(N)=O)NC(=O)[C@H](N)Cc1ccccc1)C(C)C)C(N)=O [BIM 26224, H-D-Phe-Gln-Trp-Ala-Val-Gly-His-Phe-Nle-NH2], the “% Acrosome Reacted, Analog + GRP” value (sperm [1]) is reported as 6.000 ± 1.000% and the “% Acrosome Reacted, Analog” value (sperm [1]) is reported as 9.000 ± 1.581%.

For “H-D-Nal-Gln-Trp-Ala-Val-Gly-His-Leu-.psi.(CH2 -NH)-Phe-NH2 [BIM 26136]”, the “rank in inducing the acrosome reaction among the analogs tested” value (sperm [1]; Table 1, 50 nM) was “most potent”, the “% Acrosome Reacted, Analog + GRP” value (sperm [1]) was 10.000 ± 1.225% and the “% Acrosome Reacted, Analog” value (sperm [1]) was 11.000 ± .408%.

— patent US5439884A, “Method of controlling fertilization using bombesin or its agonist” (Oregon Regional Primate Research Center, priority 1992, dated 1995)
